In patent US20230145794A1, “SOLVENT COMPOSITIONS PROMOTING PLANT GROWTH” (WinField Solutions, LLC, priority 2021, published 2023):
Where two headings read alike, the source gives them in different places.

What was measured:
[1] = Physical properties of solvent/PGR compositions (flash point tester, pH, density); format: physicochemical; conditions: flashpoint tester
Procedure: The physical properties of the various solvents and solvent combinations in combination with the assortment of PGR compositions were determined using standard laboratory equipment. Flash point was determined using a flashpoint tester.
The solvents initially examined included 2-butoxy ethanol (“BE”), BHT, propylene glycol (“PG”), methoxy propanol, water, polyethelene glycol (“PEG”), and Tetrahydrofurfyl alcohol (“THFA”), alone and/or in various combinations, with and without PGR compositions including Kinetin, indole butyric acid (“IBA”) and gibberellin A4 (“GA4”).

[2] = known solvent, from Safety Data Sheet; cited from earlier work

Row | Compound | Flash Point [1] | Density [2] | Flash Point [2] | Boiling Point [2]
1 | COCC(C)O (stereo not shown) [Comp 40, methoxy propanol] | 89 C° |  |  | 
2 | OCC1CCCO1 (stereo not shown) [Comp 41, THFA] | 183 C° |  |  | 
3 | CCOC(C)=O [compound 1, Ethyl acetate] |  | 1.049 g/mL |  | 
4 | COCC(C)O (stereo not shown) [compound 2, 1-methoxy-2-propanol] |  | 0.942 g/mL |  | 
5 | CCCCOCCO [compound 3, Ethylene glycol butyl ether, 2-butoxyl ethanol] |  |  | 60 C. ° | 
6 | CCCCOCCOCCO [compound 4, Diethylene glycol butyl ether] |  | 0.967 g/mL | 78 C. ° | 
7 | CCCCC(CC)COC(=O)C(C)O (stereo not shown) [compound 5, Lactic acid, 2-ethylhexyl ester] |  | 1.209 g/mL | 110 C. ° | 
8 | OCC1CCCO1 (stereo not shown) [compound 6, Tetrahydrofurfyl Alcohol] |  |  | 84 C. ° | 
9 | CCCCC(CC)CO (stereo not shown) [compound 7, Ethyl hexanol] |  | 0.833 g/mL | 73 C. ° | 185 C. °
10 | CCCCOC(=O)C(C)O (stereo not shown) [compound 8, Butyl lactate] |  |  | 76 C. ° | 
11 | CC(O)CO (stereo not shown) [compound 9, Propylene Glycol] |  | 1.036 g/mL | 101 C. ° | 
12 | CC(=O)OCCCCCCCC=O [compound 11, Oxo-octyl acetate] |  | 0.867 g/mL | 86 C. ° | 211 C. °
13 | CC(=O)OCC(COC(C)=O)OC(C)=O [compound 12, Glyceryl triacetate] |  |  | 138 C. ° | 
14 | CCCCCOC(C)=O [compound 14, Amyl Acetate] |  | 0.876 g/mL | 32 C. ° | 
